# According to publication PMC3661926 (Acta Neuropathologica, 2013):
# Read-outs that look alike come from different tables or passages of the source.
# What was measured:
# [1] = system: RML; conditions: mouse, in vivo, cited from earlier work
# [2] = system: cultured human peripheral lymphocytes
# [3] = system: 139A; conditions: mouse, in vivo, cited from earlier work
# [4] = mouse, in vivo, po
# [5] = target: T1, α-synuclein (α-syn) (Homo sapiens, UniProt P37840); experiment: α-synuclein in vitro oligomer formation assay (SIFT); type: biochemical; conditions: read-out: % inhibition α-syn SIFT
# T1 construct: made in house
# Description: Expression and purification of recombinant wild-type α-synuclein (α-syn) was performed according to established protocols. Fluorescent labelling of α-syn and quality control were performed as described.
# The α-syn aggregation assay was conducted with minor modifications as published previously. […] The concentration of α-syn was approximately 20 nM. In all experiments, α-syn aggregation was induced by final concentrations of 1 % DMSO and 10 μM FeCl3. Compounds were diluted into the assay mixture from 10-fold stock solutions containing 10 % DMSO (v/v), resulting in a final concentration of 1 % DMSO in all samples. “Low control” measurements for threshold setting were obtained without FeCl3 and DMSO. Experiments were started by diluting the 5-fold stock solution of fluorescently labelled α-syn in 50 mM Tris-buffer, pH 7.0, containing 1 % DMSO, 10 μM FeCl3 and compounds in concentrations ranging from 1–10 μM.
# Aggregation of α-syn was measured by scanning for intensely fluorescent targets (SIFT). […] Excitation power was 200 μW at 488 nm and 300 μW at 633 nm. Measurement time was 10 s. Scanning parameters were set to 100 μm scan path length, 50 Hz beam scanner frequency, and 2,000 μm positioning table movement. The frequency of specific combinations of “green” and “red” photon counts was recorded in a two-dimensional intensity distribution histogram, as described previously. Evaluation of SIFT data in two-dimensional intensity distribution histograms was performed by summing up the numbers of photons from high intensity bins using a two-dimensional SIFT software module (Evotec-Technologies). For threshold setting, non-aggregated reference samples were used. The photon count in bins above the threshold was considered aggregate signal.
# [6] = system: RML scrapie; experiment: whole plant or invertebrate; type: in vivo, C57BL/6 mice; conditions: for inhibition in vivo at 1 mg: in Mus musculus, po, 2880 h, read-out: % inhibition PrP^Sc in vivo (a); for % inhibition PrP^Sc in vivo (b): PrP^Sc level in spleen 35 days after i.p. infection, 34 days treatment with 1 mg compound oral in peanut butter
# [7] = target: PrP^Sc (RML prion strain) (Mus musculus, UniProt P04925); experiment: biochemical; conditions: read-out: % inhibition PrP^Sc PMCA
# [8] = system: M1000; conditions: mouse, in vivo, ip; cited from earlier work
# [9] = system: actin; type: biochemical
# [10] = in vivo; cited from earlier work
# [11] = system: prion; conditions: cited from earlier work
# [12] = system: prion strains RML, ME7, 301C, sCJD, vCJD; type: biochemical, mouse and human; conditions: 1 μl of 10 mM compound solution in DMSO
# [13] = relative to high control, 10 μM compound, 1 % DMSO, 10 μM FeCl3
# Sequence of PrP^Sc (RML prion strain) (P04925 23-230 limits assumed): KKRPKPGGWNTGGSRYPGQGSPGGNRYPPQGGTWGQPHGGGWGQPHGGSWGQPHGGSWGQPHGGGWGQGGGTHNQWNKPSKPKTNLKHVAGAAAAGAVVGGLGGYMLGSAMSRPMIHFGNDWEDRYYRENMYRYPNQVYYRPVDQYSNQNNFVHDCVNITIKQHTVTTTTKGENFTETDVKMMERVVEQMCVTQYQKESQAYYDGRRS
Compound,conc. brain [4],"inhibition at 10 µM [5, 13]",inhibition in vivo at 1 mg [6],inhibition at 10 µM [7],further results
Nc1ccc(-c2cc(-c3ccc(Cl)cc3)[nH]n2)cc1,–,–,–,–,melting point: 213 to 214 °C
CCC(C)(C)C(=O)O[C@H]1C[C@@H](C)C=C2C=C[C@H](C)[C@H](CC[C@@H]3C[C@@H](O)CC(=O)O3)[C@H]21 [Simvastatin],–,–,–,–,"Median/Mean* Survival Therapy ([1]; po, 20 mg/kg): 167 days; difference of survival therapy vs control ([1]; po, 20 mg/kg): 19 days"
"O=P1(N(CCCl)CCCl)NCCCO1 (centres unmarked) [cyclophosphamide, reference compound]",–,–,–,–,chromosomal damage by positive controls [2]: significant damage
CC(CN(C)C)CN1c2ccccc2CCc2ccccc21 (centres unmarked) [Trimipramine],–,–,–,–,"Median/Mean* Survival Therapy ([3]; ip, 10 mg/kg): 210 days; difference of survival therapy vs control ([3]; ip, 10 mg/kg): 40 days"
Brc1cccc(-c2cc(-c3ccc4[nH]cnc4c3)n[nH]2)c1 [sery417],0 nmol/g,< 10%,< 10%,51%,–
"Clc1cccc(-c2cc(-c3ccc4c(c3)OCO4)n[nH]2)c1 [sery335b, 3-(1,3-Benzodioxol-5-yl)-5-(3-chlorophenyl)-1H-pyrazole]",29.6 nmol/g,90%,68%,52%,% inhibition PrP^Sc in vivo (b) [6]: 46%
Na2CaCDTA,–,–,–,–,Median/Mean* Survival Therapy [8]: 189 days; difference of survival therapy vs control [8]: 20 days
Brc1ccc(-c2cc(-c3ccc4c(c3)OCO4)n[nH]2)cc1 [sery378b],26 nmol/g,74%,39%,34%,–
C=CC[C@@H]1/C=C(\C)C[C@H](C)C[C@H](OC)[C@H]2O[C@@](O)(C(=O)C(=O)N3CCCC[C@H]3C(=O)O[C@H](/C(C)=C/[C@@H]3CC[C@@H](O)[C@H](OC)C3)[C@H](C)[C@@H](O)CC1=O)[C@H](C)C[C@@H]2OC [Tacrolimus],–,–,–,–,"Median/Mean* Survival Therapy ([1]; ip, 5 mg/kg): 35 days; difference of survival therapy vs control ([1]; ip, 5 mg/kg): 9 days"
Oc1ccc(-c2cc(-c3cccc(Br)c3)n[nH]2)cc1O [anle138c],–,99%,< 10%,19%,effect on actin polymerization [9]: do not affect actin polymerization
CCN(CC)CCCC(C)Nc1c2ccc(Cl)cc2nc2ccc(OC)cc12 (centres unmarked) [quinacrine],–,–,–,–,concentrations reached in the brain [10]: does not reach sufficient concentrations in the brain; anti-prion activity in cell culture [11]: high anti-prion activity in cell culture
O=[N+]([O-])c1ccc(-c2cc(-c3cccc(Cl)c3)n[nH]2)cc1,–,–,–,–,melting point: 275 to 276 °C
Cl.Nc1ccc(-c2cc(-c3cccc(Br)c3)[nH]n2)cc1 [sery384],"13,9 nmol/g",–,< 10%,55%,inhibition at 10 µM [5]: 99%
"CO[C@@]12[C@H](COC(N)=O)C3=C(C(=O)C(C)=C(N)C3=O)N1C[C@@H]1N[C@@H]12 [Mitomycin C, reference compound]",–,–,–,–,chromosomal damage by positive controls [2]: significant damage
FC(F)(F)c1cccc(-c2cc(-c3ccc4c(c3)OCO4)n[nH]2)c1 [anle236b],39.3 nmol/g,< 10%,12%,< 10%,–
Fc1cccc(-c2cc(-c3ccc4c(c3)OCO4)n[nH]2)c1 [anle186b],31.1 nmol/g,< 10%,–,48%,"% inhibition PrP^Sc in vivo (c) ([6]; PrP^Sc level in brain 106 days after i.c. infection, treatment 24 days: 14 days i.p. 0.84 mg, 2 × 5 days oral gavage 1 mg): 30^c %; change of PrPSc levels in brain, mixed application scheme ([6]; from 80 dpi: 14 days i.p. 0.84 mg, 2 x 5 days gavage 1 mg, measured at 95 and 106 dpi): slight reduction of PrPSc accumulation"
Ic1cccc(-c2cc(-c3ccc4c(c3)OCO4)n[nH]2)c1 [anle197b],–,< 10%,–,16%,% inhibition PrP^Sc in vivo (b) [6]: <10^b %
OCCN1CCN(CCCN2c3ccccc3Sc3ccc(C(F)(F)F)cc32)CC1 [Fluphenazine],–,–,–,–,"Median/Mean* Survival Therapy ([3]; ip, 10 mg/kg): 205 days; difference of survival therapy vs control ([3]; ip, 10 mg/kg): 35 days"
Brc1ccccc1-c1cc(-c2ccc3c(c2)OCO3)n[nH]1 [anle234b],32.1 nmol/g,< 10%,< 10%,< 10%,"inhibitory activity in PMCA, all prion strains tested [12]: inactive"
Br.Oc1cc(-c2cc(-c3cc(Br)cc(Br)c3)n[nH]2)cc(O)c1O [anle145c],–,–,–,–,effect on actin polymerization [9]: do not affect actin polymerization
Fc1cccc(-c2nc(-c3ccc4c(c3)OCO4)no2)c1,–,–,–,–,melting point: 161 °C
Fc1ccc(F)c(-c2cc(-c3ccc4c(c3)OCO4)n[nH]2)c1,–,–,–,–,melting point: 225 to 226 °C
CN(C)c1ccc(-c2cc(-c3cccc(Br)c3)n[nH]2)cc1 [anle253b],2.1 nmol/g,50%,59%,80%,effect on actin polymerization [9]: do not affect actin polymerization
COc1cc(/C=C/C(=O)CC(=O)/C=C/c2ccc(O)c(OC)c2)ccc1O [Curcumin],–,–,–,–,"Median/Mean* Survival Therapy ([3]; po, 50 mg/kg): 208 days; difference of survival therapy vs control ([3]; po, 50 mg/kg): 12 days"
c1cc2c(cc1-c1cc(-c3ccc4c(c3)OCO4)[nH]n1)OCO2 [anle232b],–,< 10%,23%,26%,–
Brc1cccc(-c2cc(-c3ccc4c(c3)CCO4)[nH]n2)c1 [sery312b],"3,6 nmol/g",–,13%,42%,inhibition at 10 µM [5]: < 10%
Brc1cccc(-c2c[nH]c(-c3ccc4c(c3)OCO4)n2)c1 [sery345],16.6 nmol/g,57%,< 10%,< 10%,–
CC[C@H](C)C(=O)O[C@H]1C[C@H](O)C=C2C=C[C@H](C)[C@H](CC[C@@H](O)C[C@@H](O)CC(=O)O)[C@H]21 [Pravastatin],–,–,–,–,"Median/Mean* Survival Therapy ([3]; po, 200 mg/kg): 194 days; difference of survival therapy vs control ([3]; po, 200 mg/kg): 17 days"
